Here are results for 10 molecules from patent publication US10383894B2, “Human medicinal treatment using salt of peroxymonosulfuric acid” (LuTran Industries, Inc., priority 2010, dated 2019).

Holding throughout (format): in vivo, human
Test [1] relates to acute viral nasopharyngitis. Nature of the test: Treatment of persons with acute viral nasopharyngitis with the Medicine (Examples 28-32). Particulars: Example 30: prior treatment, no dose given.
The next test relates to gouty arthritis. Nature of the test: Treatment of persons with gouty arthritis with the Medicine (Examples 9-11). Particulars: no dose given; for patient-reported outcome of previously tried treatments: Example 11: prior treatment. An excerpt: Given below are examples of using the medicinal drug of type I/II for treating allergic rhinitis, osteoarthritis, gouty arthritis, bronchitis, hemorrhoids, urticaria, toothache, tinea pedis, acute viral nasopharyngitis, herpes simplex, dandruff, itching, bromhidrosis, and vaginitis. The formulation of the drug of type I/II used in these examples was the preferred formulation, mentioned above, in which the drug was formed with potassium hydrogen peroxymonosulfate as the active oxygen-releasing material, sodium chloride as the inorganic halide, sodium hexametaphosphate as the alkali metal phosphate, sulfamic acid, malic acid as the non-reducing organic acid, and sodium dodecylbenzene sulfonate as the surfactant at approximately the typical mass percentages mentioned above. A formulation approximating this formulation is commercially available in the product Virkon. This formulation of the drug of type I/II is referred to below as the “Medicine”.
The Medicine for each person infected with allergic rhinitis, osteoarthritis, gouty arthritis, bronchitis, hemorrhoids, urticaria, toothache, tinea pedis, acute viral nasopharyngitis, herpes simplex, dandruff, itching, bromhidrosis, and vaginitis is provided for topical, intranasal, oral, or/and injection administration 1-12 times per day, preferably 1-8 times per day, more preferably 1-6 times per day, typically 1-4 times per day, in liquid form at a dosage of 0.00001-5%, preferably 0.001-3%, more preferably 0.1-2%, typically 0.5-1%, for a time of contact of 1 minute-12 hours, preferably 1 minute-6 hours, more preferably 1 minute-2 hours, typically 1-30 minutes . The treatment period in each in each of the following examples is normally 1-12 months, preferably 1-6 months, more preferably 1-3 months, typically 1-30 days.
A retired adult had gouty arthritis for 10 years. The […] reported that they were in excruciating pain on random days and that previously attempted treatments for the pain were unsuccessful. […]

In a further test the test system is dandruff. Nature of the test: Treatment of persons with dandruff with the Medicine (Examples 37-40). The conditions noted are these: Example 37: prior treatment, (some of) these decreased the amount of dandruff. An excerpt: Given below are examples of using the medicinal drug of type I/II for treating allergic rhinitis, osteoarthritis, gouty arthritis, bronchitis, hemorrhoids, urticaria, toothache, tinea pedis, acute viral nasopharyngitis, herpes simplex, dandruff, itching, bromhidrosis, and vaginitis. […] A formulation approximating this formulation is commercially available in the product Virkon. This formulation of the drug of type I/II is referred to below as the “Medicine”.
The Medicine was provided to […] as a 1% solution for topical administration by scrubbing the Medicine into their scalp and hair for 5 minutes and then washing their scalp and hair. The […] reported that they administered the Medicine to themself in the foregoing manner 4 times a week for 2 weeks.

The subject of another test is osteoarthritis. Nature of the test: Treatment of persons with osteoarthritis with the Medicine (Examples 6-8). Particulars: Example 6: prior treatment, no dose given. An excerpt:
(§1) Given below are examples of using the medicinal drug of type I/II for treating allergic rhinitis, osteoarthritis, gouty arthritis, bronchitis, hemorrhoids, urticaria, toothache, tinea pedis, acute viral nasopharyngitis, herpes simplex, dandruff, itching, bromhidrosis, and vaginitis. The formulation of the drug of type I/II used in these examples was the preferred formulation, mentioned above, in which the drug was formed with potassium hydrogen peroxymonosulfate as the active oxygen-releasing material, sodium chloride as the inorganic halide, sodium hexametaphosphate as the alkali metal phosphate, sulfamic acid, malic acid as the non-reducing organic acid, and sodium dodecylbenzene sulfonate as the surfactant at approximately the typical mass percentages mentioned above. A formulation approximating this formulation is commercially available in the product Virkon. This formulation of the drug of type I/II is referred to below as the “Medicine”. […]

The subject of the next test is bronchitis. Nature of the test: Treatment of persons with bronchitis with the Medicine (Examples 12-14). The conditions noted are these: Example 13: prior treatment, no dose given.
Excerpt: as §1

For another test, the system named is vaginitis. Nature of the test: Treatment of persons with vaginitis with the Medicine (Examples 48-50). The conditions noted are these: no dose given.
Excerpt: as §1

The next test concerns itching. Nature of the test: Treatment of persons with itching with the Medicine (Examples 41-43). Particulars: no dose given.
Excerpt: as §1

As for `CC(=O)Nc1ccc(O)cc1` [paracetamol], the “patient-reported outcome of previously tried treatments for acute viral nasopharyngitis” value in test [1] is listed as “little success”. Turning to `CC(C)Cc1ccc(C(C)C(=O)O)cc1` (centres unmarked) [ibuprofen], the “patient-reported outcome of previously tried treatment for gouty arthritis” value in the test on gouty arthritis (Example 10: prior treatment) is given as “no significant success”. For the same molecule, in the test with gouty arthritis, the “patient-reported outcome of previously tried treatments” value is given as “without significant success”. As for `CC(=O)N1CCN(c2ccc(OCC3COC(Cn4ccnc4)(c4ccc(Cl)cc4Cl)O3)cc2)CC1` (centres unmarked) [ketoconazole], the “patient-reported outcome of previously tried treatments for dandruff” value (from here on “patient-reported outcome … for dandruff”) in the test on dandruff is on record as “dandruff was still visible on their scalp”.

Consider `S=[Se]=S` [selenium sulfide], for which the “patient-reported outcome … for dandruff” value in the test on dandruff is reported as “dandruff was still visible on their scalp”. As for zinc pyrithione, the “patient-reported outcome … for dandruff” value in the test on dandruff is on record as “dandruff was still visible on their scalp”. As to `COc1cc2c(c(OC)c1OC)-c1ccc(OC)c(=O)cc1[C@@H](NC(C)=O)CC2` [colchicines, colchicine], the “patient-reported outcome of previously tried treatments” value in the test with gouty arthritis was “without significant success”. In the case of `N[C@H]1C(O)O[C@H](CO)[C@@H](O)[C@@H]1O` (some centres unmarked) [glucosamine], the “patient-reported outcome of previously tried treatments for osteoarthritis” value in the test on osteoarthritis is “without effective relief”. `CN[C@@H](C)[C@@H](O)c1ccccc1` [pseudoephedrine]: in test [1], the “patient-reported outcome of previously tried treatments for acute viral nasopharyngitis” value is listed as “little success”. For the molecule `COc1ccc2c3c1O[C@H]1[C@@H](O)C=C[C@H]4[C@@H](C2)N(C)CC[C@@]341` [codeine], the “patient-reported outcome of previously tried treatments for bronchitis” value with bronchitis was “little success”.

In the case of `C[C@]12CCC(=O)C=C1CC[C@@H]1[C@@H]2[C@@H](O)C[C@@]2(C)[C@H]1CC[C@]2(O)C(=O)CO` [hydrocortisone], the “patient-reported outcome of previously tried treatments for vaginitis” value in the test on vaginitis (Example 48: prior treatment) is “without significant success”; in the test with vaginitis (Example 50: prior treatment), “to no avail”. The figures for the “patient-reported outcome of previously tried treatments for itching” value in the test on itching (Example 42: prior treatment) and in the test with itching (Example 43: prior treatment) were “without success” and “little success”, respectively.
